Data published in patent EP4332093A1, “SALT CONTAINING PIPERAZINE POLYCYCLIC DERIVATIVE, CRYSTAL FORM THEREOF, PREPARATION METHOD THEREFOR, AND USE THEREOF” (Shanghai Hansoh Biomedical Co., Ltd., priority 2021, dated 2022).
Read-outs that look alike come from different tables or passages of the source.

Key:
dopamine D3 receptor = target: T1, dopamine D3 receptor (Homo sapiens, UniProt P35462); experiment: Radioligand binding assay, dopamine D3 receptor ([3H]-methylspiperone); settings: Human Dopamine D3 Receptor membrane, [3H]-methylspiperone 0.5 nM
T1 construct: purchased PerkinElmer ES-173-M400UA
Protocol: Determination of the binding ability of the compounds of the present invention to dopamine D3 receptor
The objective of this test example is to determine the affinity of the compounds for dopamine D3 receptor.
Experimental buffer: 50 mM Tris-HCl pH 7.4, 10 mm MgCl2; washing liquor: 50 mM Tris-HCl pH 7.4, stored at 4°C; 0.5% PEI solution: 0.5 g PEI dissolved in 100 mL ddH2O, 4°C storage of spare.
(§1) 5 µL of the test compounds (0.005 nM to 100 nM, 10 concentrations in total) and 100 µL of buffer were added to a 96-well assay plate. 1 µL of cell membrane and 300 µL of buffer were added to each well, and the plate was shaken at 600 rpm for 5 minutes. 100 µL of a mixed solution of buffer and [^3H]-methylspiperone (final concentration of 0.5 nM) was added to the reaction system per well, and the plate was shaken at 600 rpm for 5 minutes and incubated at 27°C for 30 min. The UNIFII,TER-96 GF/B filter plate pre-incubated with 0.5% PEI for 1 h was washed twice with the buffer (1 mL/well). The cell membrane suspension was added to the […]-96 GF/B filter plate, washed 4 times, and incubated at 55°C for 10 min. 40 µL of ULTIMA GOLD was added to each well, and liquid scintillation counting was carried out.
(§2) The CPM (Counts per minute) values were determined by TopCount. […] The 10 concentrations of the compound were from 100 nM to 0.005 nM after 3-fold dilution of the reaction system. The percent inhibition rate and ten-point concentration data were fitted to the parametric nonlinear logistic equation by using GraphPad prism to calculate the IC50 values of the compound.

D3 receptor = target: T2, D3 receptor (Homo sapiens, UniProt P35462); experiment: cAMP content in cells stably expressing D3 receptors (CHO-D3, forskolin, HTRF); type: cell-based
T2 construct: expressed in transfected cells
Protocol: Determination of the effect of the compounds of the present invention on cAMP content in cells stably expressing D3 receptors
To determine the activation effect of the compounds on D3 receptor.
• 1. Preparation of the buffer: 1* HBSS + 20mM HEPES + 0.1% BSA + 500 µM IBMX. Complete medium: Ham's F12K + 10% fetal bovine serum +1* penicillin-streptomycin + 400 µg/mL G418. • 2. CHO-D3 cells were cultured in the complete medium at 37°C, 5% CO2. After TrypLE digestion, the cells were resuspended in the experimental buffer, and seeded into a 384-well cell culture plate at a seeding density of 8000 cells per well. • 3. The experimental buffer (1*HBSS, 0.1% BSA, 20 mM HEPES and 500 µM IBMX) was prepared. The compound was diluted with the buffer. 2.5 µL of the compound solution was added to each well, and the plate was incubated at 37°C for 10 minutes. The forskolin was diluted to 8 µM (8*) with the experimental buffer. 2.5 µL of the diluted 8* forskolin was added, and the plate was incubated at 37°C for 30 minutes. cAMP-d2 and Anti-cAMP-Eu^3+ were thawed, and diluted by 20-fold with the lysis buffer. 10 µL of cAMP-d2 was added to the experimental well, followed by the addition of 10 µL of Anti-cAMP-Eu^3+. The reaction plate was centrifuged at 200 g for 30 s at room temperature, and left to stand at 25°C for 1 h. Data was collected using Envision.

5-HT2A receptor [1] = target: T3, 5-HT2A receptor (Homo sapiens, UniProt P28223); experiment: Radioligand binding assay, 5-HT2A receptor ([3H]-Ketanserin); parameters: purchased PerkinElmer; settings: Human 5-HT2A Receptor membrane, [3H]-Ketanserin 2 nM; read-out: 5HT-2A Binding IC50
Protocol: Determination of the binding ability of the compounds of the
present invention to 5-HT2A receptor
The objective of this test example is to determine the affinity of the compounds for 5-HT2A receptor.
Experimental buffer: 50 mM Tris-HCl pH 7.4, 4 mM CaCl2; washing liquor: 50 mM Tris-HCl pH 7.4, stored at 4°C; 0.5% PEI solution: 0.5 g PEI dissolved in 100 mL ddH2O, 4°C storage of spare.
as §1, with “plate. 1.5” for “plate. 1”, “and [^3H]-Ketanserin” for “and [^3H]-methylspiperone”, “of 2” for “of 0.5”, “The […]-96” for “The UNIFII,TER-96”
as §2

5-HT2A receptor [2] = target: T3, 5-HT2A receptor; experiment: Calcium ion mobility in cells stably expressing 5-HT2A receptors (Flp-In-CHO-5HT2A, FLIPR); type: cell-based; parameters: expressed in transfected cells; settings: Flp-In-CHO-5HT2A stable pool, 5HT stimulation
Protocol: Determination of the effect of the compounds of the present invention on calcium ion mobility in cells stably expressing 5-HT2A receptors
To determine the inhibitory effect of the compounds on 5-HT2A receptor.
• 1) Preparation of the buffer: 1 x HBSS, 20 mM HEPES, 2.5 mM probenecid (probenecid was 400 mM stock in 1 M NaOH), 0.1% BSA. Probenecid and BSA were added fresh on the day of the experiment. Experimental buffers include dye buffer and compound dilution buffer. • 2) Cell culture medium: Ham's F-12K + 10% fetal bovine serum + 600 µg/ml hygromycin B + 1* penicillin-streptomycin. Seeding medium: Ham's F-12K + 10% dialysis serum; Assay buffer: 1 x HBSS + 20 mM HEPES; Cell line: Flp-In-CHO-5HT2A stable pool. • 3) The cells were cultured in the complete medium at 37°C, 5% CO2 to 70%-90% confluency. The cells were digested with TrypLE, seeded to the 384-well assay plate at a density of 1 × 10^4 cells/well, and incubated for 16 to 24 hours (at least overnight). • 4) 20X Component A was thawed to room temperature, diluted to 2X working concentration (containing 5mM Probenecid) with the assay buffer, and placed at room temperature for later use. • 5) The cell culture plate was taken out and left to stand at room temperature for 10 min. […] 10 µl of diluted 5HT was add to each experimental well using FLIPR Tetra, and the values were read.
The calcium signal values were determined by FLIPR. The calculated output for each sampling time point in the experiment was the ratio of the 340/510 nm wavelength signals to 380/510 nm wavelength signals. The maximum minus minimum calculation was derived from the ratio signal curve. The percent inhibition rate and ten-point concentration data were fitted to the parametric nonlinear logistic equation by using GraphPad prism to calculate the IC50 values of the compound.

[3] = Pharmacokinetic assay in Balb/c mice (plasma and brain tissue); type: in vivo; settings: male, mouse, po, p.o. 5 mg/kg; for AUC(0-t): read-out: Area under curve AUC0-t; for Tmax: read-out: Peak time tmax; for Cmax: read-out: Plasma concentration Cmax; for AUC(0-inf): read-out: Area under curve AUC0-∞; for MRT: read-out: Average residence time MRT; for half-life: read-out: Half life t1/2 (converted)
Protocol: Balb/c mice were used as test animals. The pharmacokinetic behavior in mouse body (plasma and brain tissue) of the compounds of Examples of the present invention was studied at an oral administration dose of 5 mg/kg.
Compounds of the Examples of the present invention, prepared by the applicant.
Male Balb/c mice (12 mice per group), purchased from Shanghai Jiesijie Laboratory Animal Co., LTD, with Certificate No.: SCXK (Shanghai) 2013-0006 N0.311620400001794.
The test compound was dissolved in 0.5% CMC-Na (1% Tween80) by sonication to formulate a clear solution or homogeneous suspension.
After an overnight fast, male Balb/c mice (12 mice per group) were administered p.o. with the test compound at an administration dose of 5 mg/kg and an administration volume of 10 mL/kg.
0.2 mL of blood was taken from the heart of the mouse before administration and at 1, 2, 4, 8 and 24 hours after administration, and the mice were sacrificed with CO2. The samples were stored in EDTA-K2 tubes, and centrifuged for 6 minutes at 4°C, 6000 rpm to separate the plasma. The plasma samples were stored at -80°C. Whole brain tissue was taken out, weighed, placed in a 2 mL centrifuge tube, and stored at -80°C.
• 1) 160 µL of acetonitrile was added to 40 µL of the plasma sample for precipitation, and then the mixture was centrifuged for 5 to 20 minutes at 3500 × g. • 2) 90 µL of acetonitrile containing internal standard (100 ng/mL) was added to 30 µL of the plasma and brain homogenate sample for precipitation, and then the mixture was centrifuged for 8 minutes at 13000 rpm. • 3) 70 µL of water was added to 70 µL of the treated supernatant and mixed by vortex for 10 minutes. 20 µL of the supernatant was taken to analyze the concentration of the test compound by LC/MS/MS. LC/MS/MS analytical instrument: AB Sciex API 4000 Qtrap.
• Liquid chromatography condition: Shimadzu LC-20AD pump • Chromatographic column: Agilent ZORBAX XDB-C18 (50×2.1 mm, 3.5 µm); Mobile phase: Eluent A was 0.1% formic acid in water, and Eluent B was acetonitrile • Flow rate: 0.4 mL/min • Elution time: 0-4.0 minutes, the eluent is as follows:
The main parameters of pharmacokinetics were calculated by WinNonlin 6.1. Table 17: Experimental results of pharmacokinetic assay in mice

T3 sequence (P28223 whole entry): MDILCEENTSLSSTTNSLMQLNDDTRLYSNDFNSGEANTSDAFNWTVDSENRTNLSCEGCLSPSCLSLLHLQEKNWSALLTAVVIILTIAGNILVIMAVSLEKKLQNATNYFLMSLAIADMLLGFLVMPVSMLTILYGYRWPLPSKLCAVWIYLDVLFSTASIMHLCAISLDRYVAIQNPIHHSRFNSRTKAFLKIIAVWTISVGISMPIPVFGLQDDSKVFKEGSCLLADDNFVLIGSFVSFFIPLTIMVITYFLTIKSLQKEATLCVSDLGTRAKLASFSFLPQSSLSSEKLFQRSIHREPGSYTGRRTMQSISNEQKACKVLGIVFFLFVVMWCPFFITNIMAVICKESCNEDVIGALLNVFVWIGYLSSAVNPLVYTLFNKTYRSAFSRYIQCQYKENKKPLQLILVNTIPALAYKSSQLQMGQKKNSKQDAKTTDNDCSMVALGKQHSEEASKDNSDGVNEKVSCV
T2 sequence (P35462 whole entry): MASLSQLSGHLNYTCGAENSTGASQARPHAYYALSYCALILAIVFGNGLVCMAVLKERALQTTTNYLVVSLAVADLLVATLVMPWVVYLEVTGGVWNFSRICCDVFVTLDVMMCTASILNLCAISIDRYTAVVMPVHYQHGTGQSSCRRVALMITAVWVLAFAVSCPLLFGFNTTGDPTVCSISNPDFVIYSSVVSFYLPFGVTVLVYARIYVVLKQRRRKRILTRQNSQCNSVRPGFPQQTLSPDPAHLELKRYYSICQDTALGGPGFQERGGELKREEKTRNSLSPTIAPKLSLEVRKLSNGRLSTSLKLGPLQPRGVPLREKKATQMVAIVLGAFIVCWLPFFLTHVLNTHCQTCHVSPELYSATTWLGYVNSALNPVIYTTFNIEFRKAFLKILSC
T1 sequence (P35462 whole entry): as above

IC50 (dopamine D3 receptor) [nM]	EC50 (D3 receptor) [nM]	IC50 (5-HT2A receptor [1]) [nM]	IC50 (5-HT2A receptor [2]) [nM]	AUC(0-t) ([3]; Brain) [ng·h/mL]	Tmax ([3]; Brain) [h]	Cmax ([3]; Brain) [ng/mL]	AUC(0-t) ([3]; Plasma) [ng·h/mL]	AUC(0-inf) ([3]; Plasma) [ng·h/mL]	MRT ([3]; Plasma) [h]	half-life ([3]; Plasma) [h]	Tmax ([3]; Plasma) [h]	Cmax ([3]; Plasma) [ng/mL]	AUC(0-inf) ([3]; Brain) [ng·h/mL]	SMILES
1.99	1	19.1	11.6											CN(C(=O)NC1CC(CCN2CCN(c3cccc(Cl)c3Cl)CC2)C1)C1CC1 (centres unmarked) [Example 20, 1-Cyclopropyl-3-(3-(2-(4-(2,3-dichlorophenyl)piperazin-1-yl)ethyl)cyclobutyl)-1-me thylurea]
0.95	0.4	41.5	39											CC(C)(O)C(=O)NC1CC(CCN2CCN(c3cccc(Cl)c3Cl)CC2)C1 (centres unmarked) [Example 4A]
2.78	0.4	9.63												C[C@@H]1CN(CCC2CC(NC(=O)C(C)(C)O)C2)CCN1c1cccc(Cl)c1Cl (stereo partly drawn) [Example 22, (R)-N-(3-(2-(4-(2,3-Dichlorophenyl)-3-methylpiperazin-1-yl)ethyl)cyclobutyl)-2-hy droxy-2-methylpropanamide]
4.37		48.4	39	900	1	361	2250	2320	2.3	1.6	0.5	961		O=C(N[C@H]1C[C@@H](CCN2CCN(c3cccc(Cl)c3Cl)CC2)C1)C1(O)CC1 [Example 6B, N-(Cis-3-(2-(4-(2,3-dichlorophenyl)piperazin-1-yl)ethyl)cyclobutyl)-1-hydroxycyclo propane-1-carboxamide]
0.33	1.7	1.8	4.28											Cc1ncc(C(=O)NC2CC(CCN3CCN(c4cccc(Cl)c4Cl)CC3)C2)o1 (centres unmarked) [Example 16A]
1.13	0.9	6.39		2190	1	339	1480	2000	5.7	3.4	0.5	369	2310	CCN(C)C(=O)NC1CC(CCN2CCN(c3cccc4sccc34)CC2)C1 (centres unmarked) [Example 24, 3-(3-(2-(4-(Benzo[b]thiophen-4-yl)piperazin-1-yl)ethyl)cyclobutyl)-1-ethyl-1-methy lurea]
0.79		6.35		1540	1	162	240	297	5.1	3.25	1	49.7	1650	O=C(NC1CC(CCN2CCCN(c3cccc(Cl)c3Cl)CC2)C1)c1ccco1 (centres unmarked) [Example 25, N-(3-(2-(4-(2,3-Dichlorophenyl)-1,4-diazepan-1-yl)ethyl)cyclobutyl)furan-2-carbox amide]

SMILES	IC50 (dopamine D3 receptor) [nM]	EC50 (D3 receptor) [nM]	IC50 (5-HT2A receptor [1]) [nM]	IC50 (5-HT2A receptor [2]) [nM]	AUC(0-t) ([3]; Brain) [ng·h/mL]	Tmax ([3]; Brain) [h]	Cmax ([3]; Brain) [ng/mL]	AUC(0-t) ([3]; Plasma) [ng·h/mL]	AUC(0-inf) ([3]; Plasma) [ng·h/mL]	MRT ([3]; Plasma) [h]	half-life ([3]; Plasma) [h]	Tmax ([3]; Plasma) [h]	Cmax ([3]; Plasma) [ng/mL]	AUC(0-inf) ([3]; Brain) [ng·h/mL]
O=C(N[C@H]1C[C@H](CCN2CCN(c3cccc(Cl)c3Cl)CC2)C1)c1ccno1 [Example 15A, N-(Trans-3-(2-(4-(2,3-dichlorophenyl)piperazin-1-yl)ethyl)cyclobutyl)isoxazole-5-ca rboxamide]	0.31	0.7	0.98	3.14										
